Test results as given in US20240190880A1 (THE REGENTS OF THE UNIVERSITY OF MICHIGAN, priority 2021, published 2024).

Target: T1, ER (Homo sapiens, UniProt P03372)
T1 construct: host or cells: T47D and MCF7 human breast cancer cells
T1 sequence (P03372 1-595): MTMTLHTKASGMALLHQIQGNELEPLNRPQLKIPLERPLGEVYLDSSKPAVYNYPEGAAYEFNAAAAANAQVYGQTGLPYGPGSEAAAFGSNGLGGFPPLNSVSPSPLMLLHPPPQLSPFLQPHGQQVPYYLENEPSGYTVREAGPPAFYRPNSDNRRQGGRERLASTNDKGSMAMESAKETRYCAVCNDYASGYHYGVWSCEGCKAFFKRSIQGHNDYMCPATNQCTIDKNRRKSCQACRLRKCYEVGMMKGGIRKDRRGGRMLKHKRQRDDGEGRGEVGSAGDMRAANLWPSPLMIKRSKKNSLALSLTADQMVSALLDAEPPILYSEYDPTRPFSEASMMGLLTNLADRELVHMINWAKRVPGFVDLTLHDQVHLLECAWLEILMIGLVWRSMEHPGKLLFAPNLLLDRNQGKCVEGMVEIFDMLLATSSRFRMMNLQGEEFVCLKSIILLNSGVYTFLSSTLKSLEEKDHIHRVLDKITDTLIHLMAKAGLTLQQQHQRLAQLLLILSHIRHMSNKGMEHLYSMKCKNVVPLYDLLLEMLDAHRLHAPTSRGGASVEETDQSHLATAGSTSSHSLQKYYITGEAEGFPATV
Assay: ER degradation activity, in-cell western blot analysis in T47D cells
Format: cell-based
Conditions: 16 hours, Table A does not say which cell line (T47D or MCF7), read-out: Potency (DC50)
Protocol: ER degradation activity was evaluated in the human breast cancer cell line T47D and MCF7 purchased from the American Type Culture Collection (ATCC), Manassas, VA, and maintained and cultured in Dulbecco's Modified Eagle's medium (DMEM) containing 10% fetal bovine serum, 1 unit/ml of penicillin and 1 μg/ml of streptomycin.
The protocol for the in-cell western blot analysis: a. seed cells in black-sided/clear bottom 96- or 384-well plates at 40,000 or 10,000 cells/well, overnight; b. add diluted compounds (final 0.5% DMSO), 16 hours. […] RT 2 h, gentle shaking. Negative control: cells plus secondary antibodies (no primary antibodies); e. wash ×4 with PBS+0.05-0.1% Tween 20, gentel shaking; f. anti-rabbit-680 and anti-mouse-800 (both 1:1000 in LiCor block+0.05% Tween20, RT 1 h, gentle shaking, no light. LI-COR: 0.2% to reduce background; g. wash×4 with PBS+0.05% Tween 20, gental shaking; h. add 100 μL or 25 μL of PBS to each well and read on CLX plate reader. The relative ER percentage in treated cells were obtained by comparing the values of treated wells to those in untreated and DMSO-treated wells as 100%.

DC50 [nM] | SMILES
< 10 | O=C1CCC(N2C(=O)c3cc4c(cc3C2=O)CN(C2CCN(CC3CN(c5ccc([C@@H]6c7ccc(O)cc7CC[C@@H]6c6ccccc6)cc5)C3)CC2)C4)C(=O)N1 (stereo partly drawn) [E243, 2-(2,6-dioxopiperidin-3-yl)-6-(1-((1-(4-((1R,2S)-6-hydroxy-2-phenyl-1,2,3,4-tetrahydronaphthalen-1-yl)phenyl)azetidin-3-yl)methyl)piperidin-4-yl)-6,7-dihydropyrrolo[3,4-f]isoindole-1,3(2H,5H)-dione]
10 to 100 | O=C1CCC(N2C(=O)c3cc4c(cc3C2=O)CN(C2CCC(CN3CCN(c5ccc([C@@H]6c7ccc(O)cc7CC[C@@H]6c6ccccc6)cc5)CC3)CC2)C4)C(=O)N1 (stereo partly drawn) [E 290, 2-(2,6-dioxopiperidin-3-yl)-6-(4-((4-(4-((1R,2S)-6-hydroxy-2-phenyl-1,2,3,4-tetrahydronaphthalen-1-yl)phenyl)piperazin-1-yl)methyl)cyclohexyl)-6,7-dihydropyrrolo[3,4-f]isoindole-1,3(2H,5H)-dione]
< 10 | C[C@@H]1Cc2cc(O)ccc2[C@@H](c2c(F)cc(N3CCC4(CC3)CN(C(=O)CN3Cc5cc6c(cc5C3)C(=O)N(C3CCC(=O)NC3=O)C6)C4)cc2F)N1CC(F)F (stereo partly shown) [E 35]
< 10 | O=C1CCC(N2Cc3cc4c(cc3C2=O)CN(C2CCN(CC3CCN(c5ccc([C@@H]6c7ccc(O)cc7CC[C@@H]6c6ccc(F)cc6)cc5)CC3)CC2)C4)C(=O)N1 (stereo partly drawn) [E 275, 3-(6-(1-((1-(4-((1R,2S)-2-(4-fluorophenyl)-6-hydroxy-1,2,3,4-tetrahydronaphthalen-1-yl)phenyl)piperidin-4-yl)methyl)piperidin-4-yl)-1-oxo-3,5,6,7-tetrahydropyrrolo[3,4-f]isoindol-2(1H)-yl)piperidine-2,6-dione]
> 100 | C[C@@H]1Cc2c([nH]c3ccccc23)[C@@H](c2c(F)cc(N3CCC(CC(=O)N4Cc5cc6c(cc5C4)C(=O)N(C4CCC(=O)NC4=O)C6)CC3)cc2F)N1CC(F)F (stereo partly drawn) [E 104, 3-(6-(2-(1-(4-((1R,3R)-2-(2,2-difluoroethyl)-3-methyl-2,3,4,9-tetrahydro-1H-pyrido[3,4-b]indol-1-yl)-3,5-difluorophenyl)piperidin-4-yl)acetyl)-1-oxo-3,5,6,7-tetrahydropyrrolo[3,4-f]isoindol-2(1H)-yl)piperidine-2,6-dione]
> 100 | O=C1CCC(N2C(=O)c3cc4c(cc3C2=O)CN(C(=O)CN2CCC3(CCN(c5ccc([C@@H]6c7ccc(O)cc7CC[C@@H]6c6ccccc6)cc5)CC3)C2)C4)C(=O)N1 (mixture of isomers) [E 140, Rac-2-(2,6-dioxopiperidin-3-yl)-6-(2-(8-(4-((1R,2S)-6-hydroxy-2-phenyl-1,2,3,4-tetrahydronaphthalen-1-yl)phenyl)-2,8-diazaspiro[4.5]decan-2-yl)acetyl)-6,7-dihydropyrrolo[3,4-f]isoindole-1,3(2H,5H)-dione]
10 to 100 | C[C@@H]1Cc2c([nH]c3ccccc23)[C@@H](c2c(F)cc(N3CCC(CN4CCC(N5Cc6cc7c(cc6C5)C(=O)N(C5CCC(=O)NC5=O)C7)CC4)CC3)cc2F)N1CC(F)F (stereo partly drawn) [E 53, 3-(6-(1-((1-(4-((1R,3R)-2-(2,2-difluoroethyl)-3-methyl-2,3,4,9-tetrahydro-1H-pyrido[3,4-b]indol-1-yl)-3,5-difluorophenyl)piperidin-4-yl)methyl)piperidin-4-yl)-1-oxo-3,5,6,7-tetrahydropyrrolo[3,4-f]isoindol-2(1H)-yl)piperidine-2,6-dione]
> 100 | C[C@@H]1Cc2c([nH]c3ccccc23)[C@@H](c2c(F)cc(N3CC(C(=O)N4CCC(N5Cc6cc7c(cc6C5)C(=O)N(C5CCC(=O)NC5=O)C7=O)CC4)C3)cc2F)N1CC(F)F (stereo partly drawn) [E 236, 6-(1-(1-(4-((1R,3R)-2-(2,2-difluoroethyl)-3-methyl-2,3,4,9-tetrahydro-1H-pyrido[3,4-b]indol-1-yl)-3,5-difluorophenyl)azetidine-3-carbonyl)piperidin-4-yl)-2-(2,6-dioxopiperidin-3-yl)-6,7-dihydropyrrolo[3,4-f]isoindole-1,3(2H,5H)-dione]
> 100 | C[C@@H]1Cc2c([nH]c3ccccc23)[C@@H](c2c(F)cc(N3CCC4(CCN(CC(=O)N5Cc6cc7c(cc6C5)C(=O)N(C5CCC(=O)NC5=O)C7=O)C4)C3)cc2F)N1CC(F)F (stereo partly drawn) [E 76, 6-(2-(7-(4-((1R,3R)-2-(2,2-difluoroethyl)-3-methyl-2,3,4,9-tetrahydro-1H-pyrido[3,4-b]indol-1-yl)-3,5-difluorophenyl)-2,7-diazaspiro[4.4]nonan-2-yl)acetyl)-2-(2,6-dioxopiperidin-3-yl)-6,7-dihydropyrrolo[3,4-f]isoindole-1,3(2H,5H)-dione]
> 100 | C[C@@H]1Cc2c([nH]c3ccccc23)[C@@H](c2c(F)cc(C3CCC(C(=O)N4CCC(CN5Cc6cc7c(cc6C5)C(=O)N(C5CCC(=O)NC5=O)C7=O)CC4)CC3)cc2F)N1CC(F)F (stereo partly drawn) [E248, 6-((1-(4-(4-((1R,3R)-2-(2,2-difluoroethyl)-3-methyl-2,3,4,9-tetrahydro-1H-pyrido[3,4-b]indol-1-yl)-3,5-difluorophenyl)cyclohexane-1-carbonyl)piperidin-4-yl)methyl)-2-(2,6-dioxopiperidin-3-yl)-6,7-dihydropyrrolo[3,4-f]isoindole-1,3(2H,5H)-dione]
10 to 100 | C[C@@H]1Cc2c([nH]c3ccccc23)[C@@H](c2c(F)cc(C3CCN(C(=O)[C@H]4CC[C@@H](N5Cc6cc7c(cc6C5)C(=O)N(C5CCC(=O)NC5=O)C7=O)CC4)CC3)cc2F)N1CC(F)F (stereo partly drawn) [E 392, 6-((1S,4s)-4-(4-(4-((1R,3R)-2-(2,2-difluoroethyl)-3-methyl-2,3,4,9-tetrahydro-1H-pyrido[3,4-b]indol-1-yl)-3,5-difluorophenyl)piperidine-1-carbonyl)cyclohexyl)-2-(2,6-dioxopiperidin-3-yl)-6,7-dihydropyrrolo[3,4-f]isoindole-1,3(2H,5H)-dione]
> 100 | C[C@@H]1Cc2cc(O)ccc2[C@@H](c2ccc(N3CCC(C(=O)N4CC(CN5Cc6cc7c(cc6C5)C(=O)N(C5CCC(=O)NC5=O)C7=O)C4)CC3)cc2)N1CC(F)F (stereo partly drawn) [E 350, 6-((1-(1-(4-((1R,3R)-2-(2,2-difluoroethyl)-6-hydroxy-3-methyl-1,2,3,4-tetrahydroisoquinolin-1-yl)phenyl)piperidine-4-carbonyl)azetidin-3-yl)methyl)-2-(2,6-dioxopiperidin-3-yl)-6,7-dihydropyrrolo[3,4-f]isoindole-1,3(2H,5H)-dione]

Same assay, conditions: compounds 16 hours, Table A does not say whether T47D or MCF7, read-out: Potency (DC50)

DC50 [nM] | SMILES
10 to 100 | O=C1CCC(N2Cc3cc4c(cc3C2=O)CN(C(=O)[C@H]2CC[C@H](CN3CC(Oc5ccc([C@@H]6c7ccc(O)cc7CC[C@@H]6c6ccccc6)cc5)C3)CC2)C4)C(=O)N1 (mixture of isomers) [E 491]
> 100 | O=C1CCC(N2Cc3cc4c(cc3C2=O)C(=O)N(C2CCN(CC3CCN(c5ccc([C@@H]6c7ccc(O)cc7CC[C@@H]6c6ccccc6)cc5)CC3)CC2)C4)C(=O)N1 (stereo partly drawn) [E 507, 2-(2,6-dioxopiperidin-3-yl)-6-(1-((1-(4-((1R,2S)-6-hydroxy-2-phenyl-1,2,3,4-tetrahydronaphthalen-1-yl)phenyl)piperidin-4-yl)methyl)piperidin-4-yl)-2,3,5,6-tetrahydropyrrolo[3,4-f]isoindole-1,7-dione]
> 100 | O=C1CCC(N2C(=O)c3cc4c(cc3C2=O)CC2(C4)CN(CC3CCN(c4ccc([C@@H]5c6ccc(O)cc6CC[C@@H]5c5ccccc5)cc4)CC3)C2)C(=O)N1 (stereo partly drawn) [E 500, 2′-(2,6-dioxopiperidin-3-yl)-1-((1-(4-((1R,2S)-6-hydroxy-2-phenyl-1,2,3,4-tetrahydronaphthalen-1-yl)phenyl)piperidin-4-yl)methyl)-5′,7′-dihydro-1′H-spiro[azetidine-3,6′-cyclopenta[f]isoindole]-1′,3′(2′H)-dione]
> 100 | C[C@@H]1Cc2c([nH]c3ccccc23)[C@@H](c2cnc(N3CCC4(CC3)CC(CN3Cc5cc6c(cc5C3)C(=O)N([C@H]3CCC(=O)NC3=O)C6=O)C4)nc2)N1CC(F)(F)CO [E 512, 6-((7-(5-((1R,3R)-2-(2,2-difluoro-3-hydroxypropyl)-3-methyl-2,3,4,9-tetrahydro-1H-pyrido[3,4-b]indol-1-yl)pyrimidin-2-yl)-7-azaspiro[3.5]nonan-2-yl)methyl)-2-((S)-2,6-dioxopiperidin-3-yl)-6,7-dihydropyrrolo[3,4-f]isoindole-1,3(2H,5H)-dione]
